Experimental findings from the supplement of paper PMC8988213 are described below.

Counter-ions that a name gives are not always drawn.

The test system of experiment [1] is ID211 patient-derived PDAC 2D line (post-FOLFIRINOX). As to the kind of experiment: normalised area under dose-response curve (viability relative to DMSO, 7 doses up to 10 µM) (fraction (AUC)); higher = less sensitive (more viability retained). The following applies: 72 h; top dose: 10 µM. Summed up:
(§1)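 A robot plated 1,500–3,000 cells/well of patient-derived 2D PDAC cells, outgrown from organoids, into 96-well plates, followed by overnight incubation at 37°C, 5% CO2. The cells were exposed for 72 h to SelleckChem library compounds at seven 3-fold-diluted concentrations up to 10 µM, and CellTiter-Glo luminescence was read after 10 min. Area under the dose-response curve came from the GRmetrics R package, with viability normalised to control wells.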

The subject of experiment [2] is ID188 patient-derived PDAC 2D line (pre-FOLFIRINOX). Described as above. As to conditions: 72 h; top dose: 10 µM. The gist of the method: as §1

Turning to `CC(C)C[C@H](NC(=O)CNC(=O)c1cc(Cl)ccc1Cl)B1OC(=O)C(CC(=O)O)(CC(=O)O)O1` [Ixazomib Citrate (MLN9708)], the “normalised area under dose-response curve” value (from here on “normalised area”) in experiment [1] was 0.48; in experiment [2] it was 0.425.
The matching figures for `Clc1ccc(NN=C(c2ccccc2)c2ccccn2)nc1` [JIB-04]: 0.662 and 0.641.
The matching figures for `Cc1cc(NC(=O)c2cccc(NC(=O)/C=C/CN(C)C)c2)ccc1Nc1nccc(-c2cccnc2)n1` [JNK-IN-8]: 0.842 and 0.874.
The like results for `Cc1ccc(NCCCc2ccccc2)c(N)c1` [JSH-23] were, in that order, 0.79 and 0.97.
As to `O=C(Cc1ccc(-c2ccc(OCCN3CCOCC3)cc2)cn1)NCc1ccccc1` [KX2-391], the “normalised area” value in experiment [1] was determined as 0.508; in experiment [2] it was 0.624.
The like results for `O=C(O)CCN1C(=O)/C(=C/c2ccc(-c3ccc([N+](=O)[O-])cc3)o2)SC1=S` [KYA1797K] were, in that order, 0.835 and 0.976.
The matching figures for `CN[C@@H](C)C(=O)N[C@H](C(=O)N1CCC[C@H]1c1nc(C(=O)c2ccc(F)cc2)cs1)C1CCCCC1` [LCL161]: 0.922 and 0.585.
The matching figures for `CN1CCN(c2ccc(-c3ccncc3-c3cc(F)c(O)c(F)c3)cc2)CC1` [LJH685]: 0.83 and 0.943.
`Cc1cn(CCN2CCN(c3ccccc3-c3cc(C#N)cc(C(=O)NCCCN4CCCC4)c3)CC2)c2ccccc12` [LLY-507]: the “normalised area” value was found to be 0.842 in experiment [1] and 0.859 in experiment [2].
The like results for `NCCCC[C@H](NC(=O)[C@@H](NC(=O)[C@H](Cc1c[nH]c2ccccc12)NC(=O)[C@H](CCCCN)NC(=O)[C@H](CCCCN)NC(=O)[C@H](Cc1c[nH]c2ccccc12)NC(=O)[C@H](Cc1c[nH]c2ccccc12)NC(=O)[C@H](CCCCN)NC(=O)[C@@H](N)CCCCN)C(c1ccccc1)c1ccccc1)C(N)=O` [LTX-315] were, in that order, 0.804 and 0.943.
The like results for `Cc1ccc(F)c(NC(=O)Nc2ccc(-c3cccc4[nH]nc(N)c34)cc2)c1` [Linifanib (ABT-869)] were, in that order, 0.814 and 0.889.
As to `C[C@]1(O)C[C@@H](c2nc(-c3ccc4ccc(-c5ccccc5)nc4c3)c3c(N)nccn32)C1` [Linsitinib (OSI-906)], the “normalised area” value came out at 0.593 in experiment [1] and 0.84 in experiment [2].
For the compound `O=C(O)c1nn(Cc2ccc(Cl)cc2Cl)c2ccccc12` [Lonidamine], the “normalised area” value stood at 0.87 in experiment [1] and 0.934 in experiment [2].
The like results for `CCNC(=O)c1noc(-c2cc(C(C)C)c(O)cc2O)c1-c1ccc(CN2CCOCC2)cc1` [Luminespib (AUY-922, NVP-AUY922)] were, in that order, 0.345 and 0.485.
The matching figures for `O=c1cc(-c2ccc(O)c(O)c2)oc2cc(O)cc(O)c12` [Luteolin]: 0.754 and 0.82.
The matching figures for `CN(CCNc1ccnc2cc(Cl)ccc12)CCNc1ccnc2cc(Cl)ccc12` [Lys05]: 0.796 and 0.921.
On to `CCC1C/C(=C\c2cccnc2)C(=O)/C(=C/c2cccnc2)C1` (stereo unspecified) [MCB-613], for which the “normalised area” value in experiment [1] came out at 0.778; in experiment [2] it was 0.764.
The like results for `COCCOc1nc(-c2ccc(Cl)c(Cl)c2)n(-c2ccc(NC(=O)CCl)cc2)n1` [MI-2 (MALT1 inhibitor)] were, in that order, 0.573 and 0.897.
